Assay [1] addresses Ba/F3 ERBB2 A775_G776insYVMA (Homo sapiens, UniProt P04626, DUP772-775, cells depend on it). The experiment in a line: Cell viability assay, Ba/F3 ERBB2 A775_G776insYVMA. In kind it is cell-based, mouse. The following applies: Ba/F3 ERBB2 YVMA cells, cell viability, 72 hours, CellTiter Glo; Table B5; read-out: Ba/F3 ERBB2 YVMA, IC50. Summed up:
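Viability after 72 h compound treatment (37 °C, 5% CO2) was quantified by CellTiter-Glo luminescence of intracellular ATP, with sigmoidal dose-response fitting. Cells were retrovirally engineered Ba/F3 lines whose growth depends on the mutant human ERBB2 in place of IL-3, plated at 3000 per well.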

Assay [2] addresses T1, phosphorylated ERBB2 (pERBB2) (Homo sapiens, UniProt P04626).
T1 construct: endogenous in cells; host or cells: BT-474
The experiment in a line: Detection of phosphorylated ERBB2 (pERBB2) by ELISA in BT-474 cells. In kind it is cell-based. The settings on record: four hours incubation. The method in brief:
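Phospho-ERBB2 in lysates was quantified by sandwich ELISA (A450, TMB) after 4 h compound exposure at 37 °C of BT-474 cells seeded at 2.0×10^4 per well. Compounds tested at 10 µM to 0.01 nM final in four-fold steps; activity normalized to DMSO (0.1%) high and cell-free low controls.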
(In general: In an ELISA, binding on a coated surface is turned into a signal by an enzyme label.)

Assay [3] deals with T2, phosphorylated EGFR (pEGFR) (Homo sapiens, UniProt P00533).
T2 construct: performed to measure phosphorylated EGFR levels using A431 cells (10% FBS); endogenous in cells; host or cells: A431
Description: Detection of phosphorylated EGFR (pEGFR) in EGF-stimulated A431 cells. In kind it is cell-based. The following applies: A431 cells (10% FBS), 4 hours incubation, EGF 30 ng/mL 10 minutes, AlphaLISA. The method in brief: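 AlphaLISA read-out of EGFR phosphorylation after a 10-min EGF pulse (30 ng/mL final). A431 cells (10% FBS) had been exposed to compound for 4 h at 37 °C. IC50 was fitted from % inhibition normalised to DMSO and staurosporine control lysates.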
A general note: Bead proximity is the source of the signal in Alpha formats.

In patent publication US20240116921A1, “LACTAM (HETERO)[…] DERIVATIVES AS INHIBITORS OF ERBB2” (EnLiven Therapeutics, Inc., priority 2020, published 2024) one finds GI50 and IC50 data, which are given here for 20 molecules.

Structures can show the parent of a compound that is named as a salt.

T2 sequence (P00533 25-1210): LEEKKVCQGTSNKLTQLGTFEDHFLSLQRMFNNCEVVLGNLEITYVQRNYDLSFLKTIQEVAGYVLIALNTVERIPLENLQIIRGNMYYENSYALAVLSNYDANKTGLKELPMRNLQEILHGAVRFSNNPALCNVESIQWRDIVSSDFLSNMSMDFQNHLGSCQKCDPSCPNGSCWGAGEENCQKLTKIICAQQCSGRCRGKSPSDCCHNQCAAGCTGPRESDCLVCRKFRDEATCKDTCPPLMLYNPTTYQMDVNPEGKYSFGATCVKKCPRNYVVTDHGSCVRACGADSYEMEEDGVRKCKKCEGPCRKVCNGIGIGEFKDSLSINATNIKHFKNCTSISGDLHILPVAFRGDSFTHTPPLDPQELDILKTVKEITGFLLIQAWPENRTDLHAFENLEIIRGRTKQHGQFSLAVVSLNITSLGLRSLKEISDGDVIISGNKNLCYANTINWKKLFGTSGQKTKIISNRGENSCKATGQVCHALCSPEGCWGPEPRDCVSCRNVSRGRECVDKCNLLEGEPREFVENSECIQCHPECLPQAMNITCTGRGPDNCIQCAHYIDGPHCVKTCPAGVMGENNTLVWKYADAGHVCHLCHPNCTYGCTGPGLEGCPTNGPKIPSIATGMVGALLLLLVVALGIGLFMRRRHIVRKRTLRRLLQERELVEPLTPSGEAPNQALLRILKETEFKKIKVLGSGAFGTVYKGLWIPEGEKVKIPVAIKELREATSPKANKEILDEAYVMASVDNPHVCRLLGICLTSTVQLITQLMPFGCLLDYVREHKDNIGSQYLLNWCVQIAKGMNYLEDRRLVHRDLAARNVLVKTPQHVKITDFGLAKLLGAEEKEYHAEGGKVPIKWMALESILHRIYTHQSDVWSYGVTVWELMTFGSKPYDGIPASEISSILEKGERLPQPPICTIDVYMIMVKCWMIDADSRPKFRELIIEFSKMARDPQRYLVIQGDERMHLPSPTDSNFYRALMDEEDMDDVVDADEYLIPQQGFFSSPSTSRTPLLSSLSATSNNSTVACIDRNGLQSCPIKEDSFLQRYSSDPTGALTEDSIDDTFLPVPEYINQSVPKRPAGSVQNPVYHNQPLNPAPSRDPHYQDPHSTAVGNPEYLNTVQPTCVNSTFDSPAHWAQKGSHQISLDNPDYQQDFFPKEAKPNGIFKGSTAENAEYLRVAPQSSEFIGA
T1 sequence (P04626 23-1255): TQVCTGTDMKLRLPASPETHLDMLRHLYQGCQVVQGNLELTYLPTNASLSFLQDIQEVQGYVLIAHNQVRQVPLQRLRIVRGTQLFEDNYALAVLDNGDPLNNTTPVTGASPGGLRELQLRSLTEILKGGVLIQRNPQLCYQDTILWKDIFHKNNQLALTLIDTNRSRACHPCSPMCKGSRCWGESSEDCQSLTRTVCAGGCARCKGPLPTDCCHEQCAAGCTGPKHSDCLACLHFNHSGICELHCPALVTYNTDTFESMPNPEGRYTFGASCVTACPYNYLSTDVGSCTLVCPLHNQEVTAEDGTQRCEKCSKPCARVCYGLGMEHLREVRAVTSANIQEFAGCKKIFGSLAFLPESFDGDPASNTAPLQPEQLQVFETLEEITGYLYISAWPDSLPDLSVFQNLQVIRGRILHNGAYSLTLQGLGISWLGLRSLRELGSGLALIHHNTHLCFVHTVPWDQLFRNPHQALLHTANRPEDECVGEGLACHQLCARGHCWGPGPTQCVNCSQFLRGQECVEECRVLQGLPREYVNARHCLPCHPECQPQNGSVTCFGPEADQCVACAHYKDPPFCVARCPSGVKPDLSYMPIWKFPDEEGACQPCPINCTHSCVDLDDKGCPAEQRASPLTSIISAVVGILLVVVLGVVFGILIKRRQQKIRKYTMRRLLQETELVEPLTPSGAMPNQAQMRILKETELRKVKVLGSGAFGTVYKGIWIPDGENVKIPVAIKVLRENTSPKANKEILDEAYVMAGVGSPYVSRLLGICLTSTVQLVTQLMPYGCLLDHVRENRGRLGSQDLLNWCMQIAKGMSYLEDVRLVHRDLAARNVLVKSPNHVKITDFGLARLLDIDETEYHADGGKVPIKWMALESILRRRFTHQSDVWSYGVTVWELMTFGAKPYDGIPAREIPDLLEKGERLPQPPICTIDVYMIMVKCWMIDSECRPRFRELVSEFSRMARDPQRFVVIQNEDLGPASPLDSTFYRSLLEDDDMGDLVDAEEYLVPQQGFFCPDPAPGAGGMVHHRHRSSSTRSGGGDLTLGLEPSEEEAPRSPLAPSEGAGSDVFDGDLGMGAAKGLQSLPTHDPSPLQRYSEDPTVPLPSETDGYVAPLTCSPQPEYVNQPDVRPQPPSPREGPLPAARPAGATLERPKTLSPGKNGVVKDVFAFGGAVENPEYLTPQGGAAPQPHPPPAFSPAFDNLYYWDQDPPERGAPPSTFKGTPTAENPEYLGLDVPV
Chain of Ba/F3 ERBB2 A775_G776insYVMA (P04626 with tags, fused parts or gaps DUP772-775): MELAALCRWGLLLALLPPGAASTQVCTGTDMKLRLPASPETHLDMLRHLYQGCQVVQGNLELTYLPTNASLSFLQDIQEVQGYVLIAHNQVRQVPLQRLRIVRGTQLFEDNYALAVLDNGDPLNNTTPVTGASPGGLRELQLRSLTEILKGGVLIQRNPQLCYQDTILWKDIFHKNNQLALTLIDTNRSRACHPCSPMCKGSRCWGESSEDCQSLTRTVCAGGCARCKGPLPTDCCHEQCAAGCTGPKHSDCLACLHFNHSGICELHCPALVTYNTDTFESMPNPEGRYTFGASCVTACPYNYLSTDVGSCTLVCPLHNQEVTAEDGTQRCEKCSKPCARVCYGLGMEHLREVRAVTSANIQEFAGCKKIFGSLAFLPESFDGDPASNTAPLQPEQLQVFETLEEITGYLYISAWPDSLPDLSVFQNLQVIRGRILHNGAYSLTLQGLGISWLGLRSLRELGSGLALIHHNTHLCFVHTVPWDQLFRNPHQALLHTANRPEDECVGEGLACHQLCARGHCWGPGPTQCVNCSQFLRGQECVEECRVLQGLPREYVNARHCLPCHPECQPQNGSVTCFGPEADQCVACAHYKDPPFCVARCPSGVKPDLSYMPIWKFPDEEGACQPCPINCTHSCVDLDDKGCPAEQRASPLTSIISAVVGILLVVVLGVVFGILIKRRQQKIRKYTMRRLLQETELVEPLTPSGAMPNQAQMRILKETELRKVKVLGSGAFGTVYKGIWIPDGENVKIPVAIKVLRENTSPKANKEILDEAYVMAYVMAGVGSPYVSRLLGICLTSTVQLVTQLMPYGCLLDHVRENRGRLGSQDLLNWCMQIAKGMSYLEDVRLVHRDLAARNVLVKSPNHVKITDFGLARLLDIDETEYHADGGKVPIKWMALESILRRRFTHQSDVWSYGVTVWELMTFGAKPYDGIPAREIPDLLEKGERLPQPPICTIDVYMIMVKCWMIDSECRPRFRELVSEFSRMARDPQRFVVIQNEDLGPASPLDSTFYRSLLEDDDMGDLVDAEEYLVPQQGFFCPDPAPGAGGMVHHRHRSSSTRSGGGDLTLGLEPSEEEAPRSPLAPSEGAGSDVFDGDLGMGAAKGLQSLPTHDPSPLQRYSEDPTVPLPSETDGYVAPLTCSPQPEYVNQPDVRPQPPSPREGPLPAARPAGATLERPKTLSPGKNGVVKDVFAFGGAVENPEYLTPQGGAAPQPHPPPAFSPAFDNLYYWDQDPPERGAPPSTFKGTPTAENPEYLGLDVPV

Consider `Cc1cc(Nc2ncnc3ccc(N4CC(C)/C(=C\CN(C)C)C4=O)nc23)ccc1Oc1ccc2c(c1)ncn2C` (single isomer, unassigned; enantiomer 2) [Example S58, Enantiomer # 2, (3E)-3-[2-(dimethylamino)ethylidene]-4-methyl-1-[4-({3-methyl-4-[(1-methyl-1,3-benzodiazol-5-yl)oxy]phenyl}amino)pyrido[3,2-d]pyrimidin-6-yl]pyrrolidin-2-one hydrochloride Enantiomer 2], for which the GI50 in assay [1] turned out to be 0.0133 µM. For the same molecule, the IC50 (in general, the concentration needed to halve the response being measured) in assay [2] is 0.0442 µM; in assay [3] it was more than 10 µM.
As to `C=C1CCN(c2cc3c(Nc4ccc(Oc5ccn6ncnc6c5)c(Cl)c4)ncnc3cc2OCCN(C)C)C1=O` [Compound 25, 1-{4-[(3-chloro-4-{[1,2,4]triazolo[1,5-a]pyridin-7-yloxy}phenyl)amino]-7-[2-(dimethylamino)ethoxy]quinazolin-6-yl}-3-methylidenepyrrolidin-2-one], the GI50 in assay [1] is more than 0.5 µM. For the same molecule, the IC50 is 1.19 µM in assay [2] and more than 10 µM in assay [3].
For `Cc1cc(Nc2ncnc3ccc(N4CC/C(=C\CCN(C)C)C4=O)cc23)ccc1Oc1ccn2ncnc2c1` [Compound 26, (3E)-3-[3-(dimethylamino)propylidene]-1-{4-[(3-methyl-4-{[1,2,4]triazolo[1,5-a]pyridin-7-yloxy}phenyl)amino]quinazolin-6-yl}pyrrolidin-2-one], in assay [1], the GI50 turned out to be 0.00861 µM. Besides, the concentration for half-maximal inhibition (IC50) in assay [2] was determined as 0.0117 µM; in assay [3] it was 1.46 µM.
For `C=C1CCN(c2ccc3ncnc(Nc4ccc(Oc5ccc6c(c5)ncn6C)c(C)c4)c3c2)C1=O` [Compound 27, 1-[4-({3-methyl-4-[(1-methyl-1,3-benzodiazol-5-yl)oxy]phenyl}amino)quinazolin-6-yl]-3-methylidenepyrrolidin-2-one], the GI50 in assay [1] is 0.0113 µM. The IC50 in assay [2] came to 0.0171 µM; in assay [3], 0.604 µM.
The matching figures for `C=C1CCN(c2cc3c(Nc4ccc(Oc5ccn6ncnc6c5)c(C)c4)ncnc3cn2)C1=O` [Compound 28, 1-(4-((4-([1,2,4]triazolo[1,5-a]pyridin-7-yloxy)-3-methylphenyl)amino)pyrido[3,4-d]pyrimidin-6-yl)-3-methylenepyrrolidin-2-one]: 0.00532 µM, 0.00777 µM and 0.355 µM.
Turning to `C=C1C(=O)N(c2ccc3ncnc(Nc4ccc(Oc5ccn6ncnc6c5)c(C)c4)c3c2)CC1CO` (stereo not drawn) [Compound 29, 4-(hydroxymethyl)-1-{4-[(3-methyl-4-{[1,2,4]triazolo[1,5-a]pyridin-7-yloxy}phenyl)amino]quinazolin-6-yl}-3-methylidenepyrrolidin-2-one], in assay [1], the GI50 is 0.0315 µM. In addition, the values for the IC50 in assay [2] and in assay [3] were 0.00586 µM and 0.405 µM, respectively.
As for `C=C1C(=O)N(c2ccc3ncnc(Nc4ccc(Oc5ccn6ncnc6c5)c(C)c4)c3c2)CC1CN(C)C` (stereo not drawn) [Compound 30, 4-[(dimethylamino)methyl]-1-{4-[(3-methyl-4-{[1,2,4]triazolo [1,5-a]pyridin-7-yloxy}phenyl)amino]quinazolin-6-yl}-3-methylidenepyrrolidin-2-one; formic acid], the GI50 in assay [1] was determined as 0.0174 µM. In addition, the results for the IC50 in assay [2] and in assay [3] were 0.0123 µM and 0.0684 µM, respectively.
With `C=C1C(=O)N(c2cc3c(Nc4ccc(Oc5ccn6ncnc6c5)c(C)c4)ncnc3cn2)C[C@@H]1C` [Compound 31], in assay [1], the GI50 turned out to be 0.00378 µM. The IC50 in assay [2] is 0.0159 µM; in assay [3], 0.117 µM.
With `C=C1C(=O)N(c2cc3c(Nc4ccc(Oc5ccn6ncnc6c5)c(C)c4)ncnc3cn2)C[C@H]1C` [Compound 32, (4S)-4-methyl-1-{4-[(3-methyl-4-{[1,2,4]triazolo[1,5-a]pyridin-7-yloxy}phenyl)amino]pyrido[3,4-d]pyrimidin-6-yl}-3-methylidenepyrrolidin-2-one], the GI50 in assay [1] amounted to 0.134 µM. Also, the IC50 in assay [2] was 0.0721 µM; in assay [3], 8.18 µM.
In the case of `Cc1cc(Nc2ncnc3ccc(N4CC/C(=C\CN(C)C)C4=O)cc23)ccc1Oc1ccc2c(c1)ncn2C` [Compound 33, (E)-3-(2-(dimethylamino)ethylidene)-1-(4-((3-methyl-4-((1-methyl-1H-benzo[d]imidazol-5-yl)oxy)phenyl)amino)quinazolin-6-yl)pyrrolidin-2-one], the GI50 in assay [1] is 0.0158 µM. In addition, the figures for the IC50 in assay [2] and in assay [3] were 0.0185 µM and 1.14 µM, respectively.
`C=C1C(=O)N(c2ccc3ncnc(Nc4ccc(Cc5ccn6ncnc6c5)c(C)c4)c3c2)C[C@H]1C` [Compound 36, (S)-1-(4-((4-([1,2,4]triazolo[1,5-a]pyridin-7-ylmethyl)-3-methylphenyl)amino)quinazolin-6-yl)-4-methyl-3-methylenepyrrolidin-2-one]: in assay [1], the GI50 came to 0.0805 µM. In addition, the IC50 in assay [2] stood at 0.0409 µM; in assay [3] it was 2.33 µM.
In the case of `C=C1C(=O)N(c2ccc3ncnc(Nc4ccc(Oc5ccc6c(c5)ncn6C)c(C)c4)c3c2)C[C@H]1C` [Compound 37, (S)-4-methyl-1-(4-((3-methyl-4-((1-methyl-1H-benzo [d]imidazol-5-yl)oxy)phenyl)amino)quinazolin-6-yl)-3-methylenepyrrolidin-2-one], the GI50 in assay [1] came out at 0.0174 µM. Further, the IC50 was 0.0269 µM in assay [2] and 1.02 µM in assay [3].
For `Cc1cc(Nc2ncnc3ccc(N4CC/C(=C\CN(C)C)C4=O)nc23)ccc1Oc1ccc2c(c1)ncn2C` [Compound 38, (3E)-3-[2-(dimethylamino)ethylidene]-1-[4-({3-methyl-4-[(1-methyl-1,3-benzodiazol-5-yl)oxy]phenyl}amino)pyrido[3,2-d]pyrimidin-6-yl]pyrrolidin-2-one], the GI50 in assay [1] stood at 0.002 µM. Further, the IC50 in assay [2] came to 0.0293 µM; in assay [3] it was 0.407 µM.
The matching figures for `C=C1CCN(c2cc3c(Nc4ccc(Oc5ccc6c(c5)ncn6C)c(C)c4)ncnc3cn2)C1=O` [Compound 39, 1-(4-((3-methyl-4-((1-methyl-1H-benzo[d]imidazol-5-yl)oxy)phenyl)amino)pyrido[3,4-d]pyrimidin-6-yl)-3-methylenepyrrolidin-2-one]: 0.0146 µM, 0.0362 µM and 0.497 µM.
The matching figures for `Cc1cc(Nc2ncnc3ccc(N4CC/C(=C\CCN5CCN(C)CC5)C4=O)cc23)ccc1Oc1ccn2ncnc2c1` [Compound 40, (3E)-1-{4-[(3-methyl-4-{[1,2,4]triazolo[1,5-a]pyridin-7-yloxy}phenyl)amino]quinazolin-6-yl}-3-[3-(4-methylpiperazin-1-yl)propylidene]pyrrolidin-2-one]: more than 0.5 µM, 0.0307 µM and more than 10 µM.
The matching figures for `C=C1C(=O)N(c2ccc3ncnc(Nc4ccc(Oc5ccc6c(c5)ncn6C)c(C)c4)c3c2)C[C@@H]1C` [Compound 41, (R)-4-methyl-1-(4-((3-methyl-4-((1-methyl-1H-benzo[d]imidazol-5-yl)oxy)phenyl)amino)quinazolin-6-yl)-3-methylenepyrrolidin-2-one]: 0.029 µM, 0.029 µM and 4.49 µM.
For the molecule `Cc1cc(Nc2ncnc3ccc(N4CC/C(=C\CCN(C)C)C4=O)cc23)ccc1Oc1ccc2c(c1)ncn2C` [Compound 44, (3E)-3-[3-(dimethylamino)propylidene]-1-[4-({3-methyl-4-[(1-methyl-1,3-benzodiazol-5-yl)oxy]phenyl}amino)quinazolin-6-yl]pyrrolidin-2-one], the GI50 in assay [1] was determined as 0.0145 µM. The IC50 in assay [2] came out at 0.0262 µM; in assay [3] it was 1.94 µM.
The matching figures for `Cc1cc(Nc2ncnc3cnc(N4CC/C(=C\CN(C)C)C4=O)cc23)ccc1Oc1ccc2c(c1)ncn2C` [Compound 45, (E)-3-(2-(dimethylamino)ethylidene)-1-(4-((3-methyl-4-((1-methyl-1H-benzo[d]imidazol-5-yl)oxy)phenyl)amino)pyrido[3,4-d]pyrimidin-6-yl)pyrrolidin-2-one]: 0.00179 µM, 0.0226 µM and 0.67 µM.
Regarding `C=C1CCN(c2ccc3ncnc(Nc4ccc(Oc5ccc6nccnc6c5)c(C)c4)c3c2)C1=O` [Compound 46, 1-(4-((3-methyl-4-(quinoxalin-6-yloxy)phenyl)amino)quinazolin-6-yl)-3-methylenepyrrolidin-2-one], the GI50 in assay [1] turned out to be 0.0539 µM. Further, the IC50 in assay [2] amounted to 0.0651 µM; in assay [3] it was 0.759 µM.
The matching figures for `Cc1cc(Nc2ncnc3ccc(N4CC/C(=C\CN(C)C)C4=O)nc23)ccc1Oc1ccn2ncnc2c1` [Compound 47, (E)-1-(4-((4-([1,2,4]triazolo[1,5-a]pyridin-7-yloxy)-3-methylphenyl)amino)pyrido[3,2-d]pyrimidin-6-yl)-3-(2-(dimethylamino)ethylidene)pyrrolidin-2-one]: 0.00408 µM, 0.0289 µM and 2.22 µM.
